Reference: patent US20080199441A1, “Use of ex-vivo cultured hematopoietic cells for treatment of peripheral vascular diseases” (priority 2006, published 2008)

How the values were obtained:
[1] = system: cord-blood-derived, bone marrow-derived, and peripheral blood derived hematopoietic cells; conditions: grown without a feeder layer; cited from earlier work
[2] = system: hematopoietic stem/progenitor cells (CD34+ or CD133+); test: Ex vivo expansion of hematopoietic cells; assay type: cell-based, human; conditions: cultured with cytokines plus inhibitor, compared to cells cultured with cytokines alone
Method: Cell cultures of human hematopoietic cells: Human umbilical cord blood cells were obtained from umbilical cord blood after normal full-term delivery (informed consent was given). MPB, or BM were obtained from donations (informed consent was given). Samples were either used fresh or collected and frozen according to well known cord blood cryopreservation protocol (Rubinstein et al. 1995) within 24 hours postpartum for UCB or according to common practice regarding MPB and BM. Prior to cryopreservation, blood was sedimented for 30 minutes on […] Starch (hydroxyethyl starch) to remove most RBC. Prior to their use, the cells were thawed in Dextran buffer (Sigma, St. Louis, Mo., USA) containing 2.5% human serum albumin (HSA)(Bayer Corp. Elkhart, Ind., USA) and processed as described herein below. Following thawing, where indicated, the leukocyte-rich fraction was harvested and layered on Ficoll-Hypaque gradient (1.077 g/mL; Sigma Inc, St Louis Mo., USA), and centrifuged at 400×g for 30 minutes. The mononuclear cell fraction in the interface layer was then collected, washed three times, and re-suspended in phosphate-buffered saline (PBS) (Biological Industries, Bet HaEmek, Israel) containing 0.5% human serum albumin (HSA) (Bayer Corp. Elkhart, Ind., USA). […] The purity of the CD133^+ populations thus obtained was 80-95%, as evaluated by flow cytometry. […]

Structure (SMILES)	fraction of CD34+ cells and long-term clonability [1]	enrichment of stem/early progenitor cell subsets (CD34+CD38− and CD34+Lin−) in cultured population [2]
NCCNCCNCCNCCN [TEPA, tetraethylpentamine]	greatly enhanced the fraction of CD34^+ cell and their long-term clonability	
NC(=O)c1cccnc1 [nicotinamide]		enriched with subsets of stem/early progenitor cells
